We go through one molecule from PMC3566858 (Beilstein Journal of Organic Chemistry, 2013).

For data set [1], the target named is cruzain (Trypanosoma cruzi, UniProt P25779). As to the kind of experiment: biochemical.
In data set [2] the target is TcCYP51 (Trypanosoma cruzi, UniProt Q7Z1V1). As to the kind of experiment: biochemical. As to conditions: UV-vis binding assay; lower limit of KD ~5 nM; read-out: TcCYP51 activity in vitro KD.
The test system of data set [3] is TcCYP51 (ergosterol biosynthesis) in intracellular T. cruzi parasites. As to the kind of experiment: Ergosterol biosynthesis / sterol composition of intracellular T. cruzi by GC/MS. In kind it is cell-based, Trypanosoma cruzi. Details: key to TcCYP51 cellular activity (Y/N): Y: Compound affects ergosterol biosynthesis at indicated concentration as determined by GC/MS analysis; cellular activity (Y/N, conc.).

For data set [4], the system named is T. cruzi parasites in J774 macrophage host cells. As to the kind of experiment: Minimum trypanocidal concentration (MTC) assay. Format: cell-based, Trypanosoma cruzi. As to conditions: clears J774 host cells of parasites at day 40, following 28 days of treatment.
Data set [5] relates to T. cruzi parasites in C2C12 host cells. Briefly: High-content imaging-based screening (HCS) assay. Format: cell-based. The note with it: Trypanosoma cruzi; reduces parasite load in C2C12 cells by 90% relative to untreated controls; read-out: T. cruzi growth inhibition HCS EC90.
Data set [6] concerns the target T1, CYP1A2 (Homo sapiens, UniProt P05177).
T1 sequence (P05177 1-516): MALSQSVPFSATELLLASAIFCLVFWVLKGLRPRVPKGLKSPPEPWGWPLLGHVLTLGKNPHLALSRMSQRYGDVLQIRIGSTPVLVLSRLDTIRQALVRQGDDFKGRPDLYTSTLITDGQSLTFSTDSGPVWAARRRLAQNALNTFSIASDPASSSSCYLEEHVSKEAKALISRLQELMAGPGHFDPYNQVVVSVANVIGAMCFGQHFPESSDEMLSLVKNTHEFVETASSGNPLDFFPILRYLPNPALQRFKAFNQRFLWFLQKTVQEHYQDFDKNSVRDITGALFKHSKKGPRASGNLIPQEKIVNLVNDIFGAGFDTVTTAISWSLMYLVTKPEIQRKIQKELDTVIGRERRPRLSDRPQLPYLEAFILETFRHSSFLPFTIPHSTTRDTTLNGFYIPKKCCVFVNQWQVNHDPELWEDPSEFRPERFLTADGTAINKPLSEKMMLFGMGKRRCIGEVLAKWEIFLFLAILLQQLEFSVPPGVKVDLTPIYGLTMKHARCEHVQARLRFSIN
As to the kind of experiment: Mammalian CYP inhibition panel, 1A2. In kind it is in vitro ADME.

The target of data set [7] is CYP2C9 (Homo sapiens, UniProt P11712). Briefly: Mammalian CYP inhibition panel, 2C9. Format: in vitro ADME.
In data set [8] the target is T2, CYP2C19 (Homo sapiens, UniProt P33261). As to the kind of experiment: Mammalian CYP inhibition panel, 2C19. Format: in vitro ADME.
In data set [9] the target is CYP2D6 (Homo sapiens, UniProt P10635). Briefly: Mammalian CYP inhibition panel, 2D6. Format: in vitro ADME.
Data set [10] deals with T3, CYP3A4 (Homo sapiens, UniProt P08684). As to the kind of experiment: Mammalian CYP inhibition panel, 3A4. Format: in vitro ADME.
Data set [11] addresses T2, CYP2C19. As to the kind of experiment: CYP reversibility study (pre-incubation with or without NADPH), 2C19. In kind it is in vitro ADME. The procedure: (§1) CYP Inhibition and reversibility studies
(§2) Mammalian CYP inhibition values and reversibility studies were conducted by WuXi AppTech
(§3) (Tianjin, China 300457) according to standard protocols. […]

Data set [12] deals with T3, CYP3A4. Briefly: CYP reversibility study (pre-incubation with or without NADPH), 3A4. Format: in vitro ADME. How it is done:
Given the similar IC50 values for 1 and 4 against CYP3A4, we were curious to determine whether 4 is an irreversible inhibitor of this enzyme, as is the case for 1 [30].
as §1, §2, §3

Data set [13] has as its target T4, ≈35 kDa host-cell protein (cathepsin B) (Mus musculus, UniProt P10605).
T4 construct: endogenous in cells; host or cells: C2C12 mouse myoblasts
As to the kind of experiment: Competitive labeling of host cell (C2C12) proteins with probe 9. In kind it is cell-based. The note with it: C2C12 cells, pretreatment with 10 μM for one hour. The procedure: The discovery of a potential mammalian off-target of probe 9 (and presumably also of 1) was of considerable interest, so we explored this finding further. To determine if this protein was also a target of 1 and 4, we conducted competition experiments in C2C12 cells. […]
Cellular labeling assay and “click” chemistry: C2C12 cells (1.5 × 10^6 cells) were pre-treated with competitor compounds in culture media (1 mL, DMEM with 10% FBS) for 1 hour at 37 °C.
Then additional competitor compound and 9 (2 µM) were added in culture media (1 mL), and the cells were incubated for an additional hour. The cells were then pelleted, washed with phosphate-buffered saline pH 7.4 (2 × 1 mL), and lysed with 1% SDS in phosphate-buffered saline (400 µL). The denatured lysates were sonicated to reduce viscosity, centrifuged to give pellets of the insoluble material, and normalized for total protein content. The normalized lysates (22 µL, 3 mg/mL) were mixed with TAMRA azide 10 (0.5 µL, 5 mM), TCEP (0.5 µL, 50 mM, pH ~7.0), TBTA ligand in 1:4 DMSO/t-butyl alcohol (1.5 µL, 1 mM), and CuSO4 (0.5 µL, 50 mM).
Reactions were incubated at room temperature for one hour and then resolved by SDS-PAGE.
The resulting gel was scanned for fluorescence (Typhoon Imaging System, Molecular Dynamics) and coomassie stained. […]

Data set [14] concerns the target T3, CYP3A4. The arrangement: method as in PMID 11038163. The note with it: cited from earlier work.
For data set [15], the system named is P-glycoprotein (P-gp). As to conditions: stated as known, no reference given; cited from earlier work.

T2 sequence (P33261 whole entry): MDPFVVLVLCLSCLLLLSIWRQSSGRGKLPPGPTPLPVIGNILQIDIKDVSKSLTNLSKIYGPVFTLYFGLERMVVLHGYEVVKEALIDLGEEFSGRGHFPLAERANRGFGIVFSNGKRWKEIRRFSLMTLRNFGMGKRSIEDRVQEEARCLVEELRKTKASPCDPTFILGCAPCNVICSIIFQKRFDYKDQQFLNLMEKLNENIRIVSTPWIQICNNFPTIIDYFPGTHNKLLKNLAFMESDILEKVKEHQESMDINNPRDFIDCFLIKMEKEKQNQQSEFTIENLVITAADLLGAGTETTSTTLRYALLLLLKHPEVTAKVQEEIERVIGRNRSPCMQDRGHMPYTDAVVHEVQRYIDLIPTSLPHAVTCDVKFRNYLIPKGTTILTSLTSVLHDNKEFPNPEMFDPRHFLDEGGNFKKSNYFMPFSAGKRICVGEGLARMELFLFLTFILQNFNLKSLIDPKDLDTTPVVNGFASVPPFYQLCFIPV
T3 sequence (P08684 whole entry): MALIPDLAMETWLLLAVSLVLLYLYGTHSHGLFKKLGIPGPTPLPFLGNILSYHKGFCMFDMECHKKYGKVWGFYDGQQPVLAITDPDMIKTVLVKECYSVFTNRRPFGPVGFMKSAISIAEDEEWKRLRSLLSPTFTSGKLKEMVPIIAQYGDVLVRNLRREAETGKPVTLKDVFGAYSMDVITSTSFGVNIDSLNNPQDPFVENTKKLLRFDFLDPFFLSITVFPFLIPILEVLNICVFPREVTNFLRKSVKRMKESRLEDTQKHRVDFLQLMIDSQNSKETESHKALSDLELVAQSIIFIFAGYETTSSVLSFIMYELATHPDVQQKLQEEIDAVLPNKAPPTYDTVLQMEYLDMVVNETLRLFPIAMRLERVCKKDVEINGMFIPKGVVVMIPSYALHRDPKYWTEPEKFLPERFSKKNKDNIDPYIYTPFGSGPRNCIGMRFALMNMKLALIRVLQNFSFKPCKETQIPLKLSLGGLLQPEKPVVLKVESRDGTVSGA
Chain of TcCYP51 (Q7Z1V1 whole entry): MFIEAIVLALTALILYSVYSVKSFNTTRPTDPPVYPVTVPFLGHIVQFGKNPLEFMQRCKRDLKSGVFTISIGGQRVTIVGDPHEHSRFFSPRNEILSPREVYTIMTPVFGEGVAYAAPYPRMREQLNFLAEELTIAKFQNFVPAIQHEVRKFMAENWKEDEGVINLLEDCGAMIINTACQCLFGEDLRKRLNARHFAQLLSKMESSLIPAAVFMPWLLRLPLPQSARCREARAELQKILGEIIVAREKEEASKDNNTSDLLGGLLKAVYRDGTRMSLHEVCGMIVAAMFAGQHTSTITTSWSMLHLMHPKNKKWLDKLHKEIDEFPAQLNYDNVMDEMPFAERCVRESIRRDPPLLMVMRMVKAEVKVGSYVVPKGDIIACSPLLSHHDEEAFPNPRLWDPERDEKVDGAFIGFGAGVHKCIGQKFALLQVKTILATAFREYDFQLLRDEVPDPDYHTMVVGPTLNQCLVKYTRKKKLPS
Chain of cruzain (P25779 123-337 limits assumed): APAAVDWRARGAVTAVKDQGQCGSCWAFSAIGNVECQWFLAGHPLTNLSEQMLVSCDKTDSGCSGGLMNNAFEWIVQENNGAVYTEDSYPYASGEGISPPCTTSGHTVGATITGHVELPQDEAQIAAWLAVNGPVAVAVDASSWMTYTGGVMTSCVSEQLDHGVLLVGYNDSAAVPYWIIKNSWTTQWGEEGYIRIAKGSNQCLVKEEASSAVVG
Chain of CYP2D6 (P10635 whole entry): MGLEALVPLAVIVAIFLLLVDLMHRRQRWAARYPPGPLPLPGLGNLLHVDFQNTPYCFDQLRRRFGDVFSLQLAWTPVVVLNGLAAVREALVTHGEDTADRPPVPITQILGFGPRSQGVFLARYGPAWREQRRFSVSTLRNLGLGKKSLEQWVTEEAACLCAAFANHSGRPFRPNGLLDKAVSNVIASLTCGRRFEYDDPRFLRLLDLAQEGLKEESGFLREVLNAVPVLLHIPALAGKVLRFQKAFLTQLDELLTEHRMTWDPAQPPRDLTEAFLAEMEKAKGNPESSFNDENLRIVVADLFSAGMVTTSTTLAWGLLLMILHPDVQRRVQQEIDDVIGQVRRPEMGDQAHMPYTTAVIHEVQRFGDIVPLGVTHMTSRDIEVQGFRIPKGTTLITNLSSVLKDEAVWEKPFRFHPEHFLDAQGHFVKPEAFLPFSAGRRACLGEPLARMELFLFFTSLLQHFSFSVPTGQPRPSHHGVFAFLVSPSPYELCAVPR
T4 sequence (P10605 80-333 limits assumed): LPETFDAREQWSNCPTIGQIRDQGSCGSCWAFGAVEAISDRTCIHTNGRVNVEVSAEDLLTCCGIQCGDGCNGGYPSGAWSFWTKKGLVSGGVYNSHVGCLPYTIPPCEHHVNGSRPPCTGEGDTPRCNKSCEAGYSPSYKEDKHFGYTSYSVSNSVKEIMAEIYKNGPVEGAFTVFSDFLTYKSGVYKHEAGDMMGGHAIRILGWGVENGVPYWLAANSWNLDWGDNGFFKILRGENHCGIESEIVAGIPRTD
Chain of CYP2C9 (P11712 whole entry): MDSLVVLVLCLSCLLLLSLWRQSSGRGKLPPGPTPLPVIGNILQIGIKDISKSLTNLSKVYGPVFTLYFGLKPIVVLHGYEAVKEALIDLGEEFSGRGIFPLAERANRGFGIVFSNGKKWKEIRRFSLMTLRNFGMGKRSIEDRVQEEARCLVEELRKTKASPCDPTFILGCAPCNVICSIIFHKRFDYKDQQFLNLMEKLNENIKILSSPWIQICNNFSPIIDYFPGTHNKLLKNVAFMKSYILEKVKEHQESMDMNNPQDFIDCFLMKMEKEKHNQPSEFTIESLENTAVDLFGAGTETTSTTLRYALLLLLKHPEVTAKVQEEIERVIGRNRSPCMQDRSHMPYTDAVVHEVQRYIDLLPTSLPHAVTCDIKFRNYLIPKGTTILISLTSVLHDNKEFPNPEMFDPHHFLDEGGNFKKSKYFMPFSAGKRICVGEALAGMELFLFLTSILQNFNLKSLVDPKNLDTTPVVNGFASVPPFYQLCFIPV

As for `CN1CCN(C(=O)N[C@@H](Cc2ccccc2)C(=O)N[C@H](/C=C/S(=O)(=O)c2ccccc2)CCc2ccccc2)CC1` [Compound 1, reference compound], in data set [1], the kinact/KI worked out at 118000 M⁻¹ s⁻¹. Moreover, in data set [2], the Kd is greater than 2 µM. The “TcCYP51 cellular activity (Y/N)” value in data set [3] (affects ergosterol biosynthesis at 1.6 μM) is “N (1.6 μM)”. In data set [3] (concentrations below MTC), the “effect on sterol (lipid) composition of intracellular T. cruzi” value was “little effect on sterol composition”. The “T. cruzi growth inhibition MTC” value in data set [4] is 8 µM. Besides, the EC90 in data set [5] is 0.1 µM. Also, the IC50 in data set [6] was 24 µM; in [7] it was 32 µM; in [8] it was 7.6 µM; in data set [9], 26 µM; in data set [10], 1.7 µM; in [11] (pre-incubation with NADPH), 5.54 µM. Also, the results for the half-maximal inhibitory concentration (IC50) in data set [11] (pre-incubation without NADPH), in data set [12] (pre-incubation with NADPH) and in data set [12] (pre-incubation without NADPH) were 8.22 µM, 0.0059 µM and 1.08 µM, respectively. Also, the “mechanism of CYP2C19 inhibition” value in data set [11] (NADPH-dependent shift of IC50) is “reversible inhibitors”. Further, the “mechanism of CYP3A4 inhibition” value in data set [12] (NADPH-dependent shift of IC50) is “irreversible inhibition”. The “competition for labeling of the ≈35 kDa band by probe 9” value in data set [13] is reported as “successfully blocked labeling”. In addition, the “type of CYP3A4 inhibition” value in [14] is listed as “mechanism-based (irreversible) inhibitor of CYP3A4”. For the same molecule, the “P-glycoprotein (P-gp) substrate” value in [15] was “substrate of the drug transporter P-glycoprotein (P-gp)”.

The kinact/KI is the maximal inactivation rate divided by the concentration that gives half of it. What is called Kd is the equilibrium constant for the complex coming apart. What is called EC90 is the concentration needed for an effect of 90%. For orientation: IC50 means the concentration that gives 50% inhibition.
